According to patent US8372869B2, “Process for the treatment of bacterial infections using 2-phenyl-1,2-benzisoselenazol-3(2H)-one 1-oxide” (priority 2008, dated 2013):
Entries after “also recorded” stand apart in the source; their conditions may differ.

How the values were obtained:
A-431 human skin cells = test: MTT viability assay in human skin cells; format: cell-based; settings: 12.5, 25 or 50 μM, 24 hr, 37° C., serum-free DMEM
Experimental: Cells were then incubated for 24 hr at 37° C. After incubation, the MTT viability assay was performed. This assay measures the conversion of 3-[4,5-dimethylthiazol-2-yl]-2,5-diphenyl tetrazolium bromide (MTT) into a colored product in living cells. The optical density of this purple formazan product in the cell culture medium was then measured spectrophotometrically at 570 nm and cell viability was determined as described by Mosmann (15).
The MTT assay was used to determine cell viability and the LC50 value for ebselen se-oxide in these cells was evaluated.

[1] = tested on: Escherichia coli strain DH5(alpha) (Gram-negative); test: Bacterial growth inhibition by light-scattering at 550 nm, Escherichia coli; format: cell-based; settings: read-out: IC50 towards Escherichia coli cells (growth inhibition)
Excerpt: (§1) A Gram-negative Escherichia coli strain, DH5(alpha), was purchased from Invitrogen (Cat #18265-017; Carlsbad, Calif.) and a Gram-positive Staphylococcus aureus strain, positive for catalase and coagulase, was purchased from Ward's Natural Science (Cat #85V1178; Rochester, N.Y.). S. aureus strain ATCC 33592 is a clinical isolate which is resistant to methicillin and which was obtained from the American Type Culture Collection (Manassas, Va.). S. aureus strain NARSA VRS 1 is a clinical isolate which is resistant to both methicillin and vancomycin and which was obtained from Focus Technologies, Inc. (Herndon, Va.). These bacterial strains were used to test the antibacterial activity of ebselen se-oxide. To prepare ebselen se-oxide, an adequate amount of said compound was dissolved in 0.5 mL of dimethylsulfoxide (DMSO) to give a 30.0 mM stock solution.
(§2) Luria Broth (LB) was used to for the culturing of both bacterial strains. […]
(§3) Bacterial growth, in the absence or presence of ebselen se-oxide, was assessed by light-scattering at 550 nm. In separate experiments, bacterial cells of either the Staphylococcus aureus or the Escherichia coli strain were inoculated into polypropylene tubes containing 5 mL of LB medium to obtain an initial optical density at 550 nm (OD550) of ˜0.005, as determined using a spectrophotometer (UV 160U, Shimadzu Corp., Kyoto, Japan). […]

[2] = tested on: Staphylococcus aureus strain, positive for catalase and coagulase (Gram-positive); test: Bacterial growth inhibition by light-scattering at 550 nm, Staphylococcus aureus; format: cell-based; settings: read-out: IC50, concentration required to inhibit the growth of Staphylococcus aureus to 50% of the untreated control
Excerpt: as §1, §2, §3

[3] = tested on: S. aureus strain NARSA VRS1 (resistant to both methicillin and vancomycin); test: Broth microdilution susceptibility testing, methicillin- and vancomycin-resistant S. aureus; format: cell-based, Staphylococcus aureus; settings: strain NARSA VRS1, Mueller Hinton Broth, 24 (±4) hr, 35-37° C., 3.125-25 μM tested
Excerpt: as §1
(§4) Note that all susceptibility assays were performed in triplicate wells using sterile flat-bottom 96-well microtiter plates. […] After 24 (±4) hr of incubation at 35-37° C., the MIC (minimum inhibitory concentration) for ebselen se-oxide was determined for each strain visually by comparing the turbidity of the triplicate treatments to that observed for drug-free growth control wells. […]

[4] = tested on: S. aureus strain ATCC 33592 (resistant to methicillin); test: Broth microdilution susceptibility testing, methicillin-resistant S. aureus; format: cell-based, Staphylococcus aureus; settings: strain ATCC 33592, Mueller Hinton Broth, 24 (±4) hr, 35-37° C., 3.125-25 μM tested
Excerpt: as §1, §4

SMILES	Cytotoxic effect on viability of A-431 human skin cells (MTT) (A-431 human skin cells)	IC50 [1] [µM]	IC50 [2] [µM]	MIC (lowest concentration showing 100% growth inhibition in all three wells) [3]	MIC (lowest concentration showing 100% growth inhibition in all three wells) [4]
O=c1c2ccccc2[se]n1-c1ccccc1 [ebselen, 2-phenyl-1,2-benzoisoselenazol-3(2H)-one, reference compound]	neither compound was toxic	–	–	–	–
O=C1c2ccccc2[Se](=O)N1c1ccccc1 (stereo not drawn) [ebselen se-oxide, 2-phenyl-1,2-benzisoselenazol-3(2H)-one 1-oxide]	neither compound was toxic; also recorded: no toxicity	~17	~0.6	low micromolar range	low micromolar range
